test system: phospho-ERK formation (Raf kinase activity) in A375 cells; assay: Phospho-ERK ELISA assay; assay type: cell-based; settings: Homo sapiens, A-375, 3 h, 3 hours with inhibitor, read-out: IC50, inhibition of the formation of phospho-ERK
Description: Inhibition of Raf kinase activity in whole cell systems can be assessed by determining the decrease in phosphorylation of Raf kinase substrates. Any known Raf kinase substrate can be used to measure inhibition of Raf kinase activity in a whole cell system.
Medium was removed, and cells were incubated with Raf kinase inhibitors for 3 hours at 37° C. Medium was removed, and cells were fixed with 4% paraformaldehyde for 15 minutes at room temperature.
Methanol was added for 15 min. Cells were removed and blocked with 10% sheep serum and 1% BSA in PBS overnight at 4° C. Cells were incubated with anti-p44/42MAPK antibody (1:100, Cell Signaling Technologies, #9101L) (20 μL/well) for one hour at room temperature. After washing with PBS three times, cells were stained with anti-rabbit horseradish peroxidase-linked antibody from donkey (1:100, Amersham Bioscience #NA934V) for 1 hour at room temperature. Cells were washed three times with 0.5% Tween-20 in PBS and twice with PBS. 3,3′, 5,5′-Tetramethylbenzidine (TMB) liquid substrate system (Sigma, #T8665) (50 μL/well) was added, and cells were incubated for 30-45 minutes at room temperature. Optical density was read at 650 nm. Cells were then washed 3-5 times with PBS to remove color solution. Results were normalized for the protein content in each well using a BCA protein assay kit (Pierce).

Structure (SMILES) | IC50 [µM]
CNC(=O)c1cc(Oc2ccc3c(c2)C[C@H](C(=O)Nc2cc(CN)cc(C(F)(F)F)c2)CC3)ccn1 [Compound I-244, 4-{[(7R)-7-({[3-(aminomethyl)-5-(trifluoromethyl)phenyl]amino}carbonyl)-5,6,7,8-tetrahydronaphthalen-2-yl]oxy}-N-methylpyridine-2-carboxamide] | ≤ 25
CC(=O)NCc1cc(Oc2ccc3c(c2)CC(C(=O)Nc2cccc(C(C)(C)C)c2)CC3)ccn1 (centres unmarked) [Compound I-246, 7-({2-[(acetylamino)methyl]pyridin-4-yl}oxy)-N-(3-tert-butylphenyl)-1,2,3,4-tetrahydronaphthalene-2-carboxamide] | ≤ 25
CC(C)(C)c1cccc(NC(=O)C2CCc3ccc(Oc4ccnc(NS(C)(=O)=O)c4)cc3C2)c1 (centres unmarked) [Compound I-254, N-(3-tert-butylphenyl)-7-({2-[(methylsulfonyl)amino]pyridin-4-yl}-oxy)-1,2,3,4-tetrahydronaphthalene-2-carboxamide] | ≤ 25
O=C(Nc1cc(C(F)(F)F)ccc1OCCN1CCNCC1)C1CCc2ccc(Oc3ccnc(C4=NCCN4)c3)cc2C1 (centres unmarked) [Compound I-261, 7-{[2-(4,5-dihydro-1H-imidazol-2-yl)pyridin-4-yl]oxy}-N-[2-(2-piperazin-1-ylethoxy)-5-(trifluoromethyl)phenyl]-1,2,3,4-tetrahydronaphthalene-2-carboxamide] | ≤ 25
NCc1cc(NC(=O)C2CCc3ccc(Oc4ccnc(N)c4)cc3C2)cc(C(F)(F)F)c1 (centres unmarked) [Compound I-271, N-[3-(aminomethyl)-5-(trifluoromethyl)phenyl]-7-[(2-aminopyridin-4-yl)oxy]-1,2,3,4-tetrahydronaphthalene-2-carboxamide] | ≤ 25
CC(=O)Nc1cc(Oc2ccc3c(c2)CC(C(=O)Nc2ccc(C(F)(F)F)cc2)CC3)ccn1 (centres unmarked) [Compound I-281, 7-{[2-(acetylamino)pyridin-4-yl]oxy}-N-[4-(trifluoromethyl)phenyl]-1,2,3,4-tetrahydronaphthalene-2-carboxamide] | ≤ 25
CC(C)(C)c1cccc(NC(=O)c2cnc3ccc(Oc4ccncc4)cc3c2)c1 [Compound I-299, N-(3-tert-butylphenyl)-6-(pyridin-4-yloxy)quinoline-3-carboxamide] | ≤ 25
CC(=O)Nc1cc(Oc2ccc3c(c2)CC(C(=O)Nc2ccc(Cl)cc2)CC3)ccn1 (centres unmarked) [Compound I-303, 7-{[2-(acetylamino)pyridin-4-yl]oxy}-N-(4-chlorophenyl)-1,2,3,4-tetrahydronaphthalene-2-carboxamide] | ≤ 25
CC(C)(C)c1cccc(NC(=O)C2CCc3ccc(Oc4ccnc(CN)c4)cc3C2)c1 (centres unmarked) [Compound I-331, 7-{[2-(aminomethyl)pyridin-4-yl]oxy}-N-(3-tert-butylphenyl)-1,2,3,4-tetrahydronaphthalene-2-carboxamide] | ≤ 25
CC(C)(C)c1cccc(NC(=O)c2ccc3ccc(Oc4ccnc(C#N)c4)cc3c2)c1 [Compound I-340, N-(3-tert-butylphenyl)-7-[(2-cyanopyridin-4-yl)oxy]-2-naphthamide] | ≤ 25
Cn1cc(-c2cc(Oc3ccc4c(c3)CC(C(=O)Nc3cc(CN5CCCC5)cc(C(F)(F)F)c3)CC4)ccn2)cn1 (centres unmarked) [Compound I-344, 7-{[2-(1-methyl-1H-pyrazol-4-yl)pyridin-4-yl]oxy}-N-[3-(pyrrolidin-1-ylmethyl)-5-(trifluoromethyl)phenyl]-1,2,3,4-tetrahydronaphthalene-2-carboxamide] | ≤ 25

Now from value to compound:

IC50 [µM] | Structure (SMILES)
≤ 25 | CC(C)(C)c1cccc(NC(=O)C2COc3ccc(Oc4ccnc(C5=NCCN5)c4)cc3C2)c1 (centres unmarked) [Compound I-349, N-(3-tert-butylphenyl)-6-{[2-(4,5-dihydro-1H-imidazol-2-yl)pyridin-4-yl]oxy}chromane-3-carboxamide]
≤ 25 | O=C(Nc1cc(OCCN2CCCC2)cc(C(F)(F)F)c1)c1cnc2ccc(Oc3ccncc3)cc2c1 [Compound I-351, 6-(pyridin-4-yloxy)-N-[3-(2-pyrrolidin-1-ylethoxy)-5-(trifluoromethyl)phenyl]quinoline-3-carboxamide]
≤ 25 | NCc1cc(NC(=O)C2CCc3ccc(Oc4ccnc(C(=O)N5CCCC5)c4)cc3C2)cc(C(F)(F)F)c1 (centres unmarked) [Compound I-362, N-[3-(aminomethyl)-5-(trifluoromethyl)phenyl]-7-{[2-(pyrrolidin-1-ylcarbonyl)pyridin-4-yl]oxy}-1,2,3,4-tetrahydronaphthalene-2-carboxamide]
≤ 25 | N=C(N)c1cc(Oc2ccc3ccc(C(=O)Nc4ccc(CN)c(C(F)(F)F)c4)cc3c2)ccn1 [Compound I-381, 7-({2-[amino(imino)methyl]pyridin-4-yl}oxy)-N-[4-(aminomethyl)-3-(trifluoromethyl)phenyl]-2-naphthamide]
≤ 25 | CN1CCN(c2cc(Oc3ccc4c(c3)CC(C(=O)Nc3cccc(C(C)(C)C)c3)CC4)ccn2)CC1 (centres unmarked) [Compound I-415, N-(3-tert-butylphenyl)-7-{[2-(4-methylpiperazin-1-yl)pyridin-4-yl]oxy}-1,2,3,4-tetrahydronaphthalene-2-carboxamide]
≤ 25 | CCNC(=O)NCc1cc(NC(=O)C2CCc3ccc(Oc4ccnc(C(=O)NC)c4)cc3C2)cc(C(F)(F)F)c1 (centres unmarked) [Compound I-420, 4-{[7-({[3-({[(ethylamino)carbonyl]amino}methyl)-5-(trifluoromethyl)phenyl]amino}carbonyl)-5,6,7,8-tetrahydronaphthalen-2-yl]-oxy}-N-methylpyridine-2-carboxamide]
≤ 25 | CNC(=O)c1cc(Oc2ccc3c(c2)CC(NC(=O)c2ccc(Cl)c(C(F)(F)F)c2)CC3)ccn1 (centres unmarked) [Compound I-444, 4-[(7-{[4-chloro-3-(trifluoromethyl)benzoyl]amino}-5,6,7,8-tetrahydronaphthalen-2-yl)oxy]-N-methylpyridine-2-carboxamide]
≤ 25 | CC(C)(C)c1cccc(NC(=O)c2cnc3ccc(Oc4ccnc(C#N)c4)cc3c2)c1 [Compound I-448, N-(3-tert-butylphenyl)-6-[(2-cyanopyridin-4-yl)oxy]quinoline-3-carboxamide]
≤ 25 | CNC(=O)c1cc(Oc2ccc3c(c2)CC(NC(=O)c2cccc(C(C)(C)C)c2)CC3)ccn1 (centres unmarked) [Compound I-460, 4-({7-[(3-tert-butylbenzoyl)amino]-5,6,7,8-tetrahydronaphthalen-2-yl}oxy)-N-methylpyridine-2-carboxamide]

— US8110687B2, “Bicyclic compounds with kinase inhibitory activity” (Millennium Pharmaceuticals, Inc., priority 2005, dated 2012)
